Assay results taken from patent publication US20240165089A1, “METHOD FOR TREATING MYOPIA WITH VINPOCETINE” (EYE HOSPITAL, WENZHOU MEDICAL UNIVERSITY, priority 2021, published 2024).

Key:
[1] = tested on: form deprivation myopia (FDM) guinea pig model; test: form deprivation myopia (FDM) guinea pig model, injection around the eyeball; format: in vivo
Source text: The form deprivation and lens-induced guinea pig myopia model is a classic and recognized myopia animal model in the field. The model can be used to evaluate the efficacy and safety of drugs for treating myopia. The construction method of the model is well known to those skilled in the art. The animal modeling and administration route in this application refer to the scientific literature previously published by this research group (Sen Zhang, Invest Ophthalmol Vis Sci. 2019 Jul. 1; 60(8):3074-3083.; Miaozhen Pan, Exp Eye Res. 2021 January; 202:108332.), specifically, this application uses the following exemplary construction method of the form deprivation and lens-induced guinea pig myopia model:
three-week-old tricolor guinea pigs (both male and female, simulating humans aged 3-26 years old) were used and raised in the experimental animal room of Wenzhou Medical University in a 12-hour light (400-500 lux)/12-hour dark environment with free access to water and food. The myopia model adopted monocular form deprivation (FD) and lens induction (LI) modeling methods. […] In the lens induction group, a −4D lens was fixed in front of the right eye of the animal, and the left eye obtained normal vision. For the above animals, the lenses were cleaned twice a day to prevent the lenses from blurring. The animals in the experimental group were administrated at 9:00-9:30 am every day. […] The administration process for each animal was controlled in about 10 seconds. Administration began on the day of modeling, and was continuous for 2 weeks for the form deprivation group and was continuous for 1 week for the lens induction group. This experiment has been reviewed by the Experimental Animal Ethics Committee of Wenzhou Medical University.
The inventors prepared a 5 μM (i.e., 1.75 μg/mL) vinpocetine stock solution and stored at −80° C. The solvent was physiological saline. Before administration experiment, the stock solution was diluted with physiological saline to 1 μM, 0.1 μM, and 0.01 μM, respectively. During the formulation process of vinpocetine eye drops, the solubility can be increased by using conventional physical methods such as heating and stirring, or acids can also be used to adjust the PH value to increase solubility, and finally, the PH value can be adjusted to 7.31.
2. Form deprivation plus drug injection group: • wearing an eye mask on one eye and injecting vinpocetine (0.01 μM: 0.1 mL/day) into the eye wearing the eye mask for 2 weeks, sample size=15; • wearing an eye mask on one eye and injecting vinpocetine (0.1 μM: 0.1 mL/day) into the eye wearing the eye mask for 2 weeks, sample size=20; • wearing an eye mask on one eye and injecting vinpocetine 1.00 μM: 0.1 mL/day) into the eye wearing the eye mask for 2 weeks, sample size=22; • 3.
All animals in the same model efficacy experiment were measured within the same time period, and the first measurement was at 3 weeks of age, that is, before drug administration. Refractions and eyeball parameters were measured for the animals in the above FDM group before the experiment, after 1 week of administration in the experiment and after 2 weeks of administration in the experiment and for the animals in the LIM group before the experiment, after 3 days of administration in the experiment and after 7 days of administration in the experiment, respectively. The refractions were measured using an eccentric infrared photoretinoscope (EIR) built in our laboratory. Each eye was measured three times and the average was taken as the final result. The axial parameters of the guinea pig's eyeballs were measured using the A-ultrasound probe in the CinescanA/B ultrasonic diagnostic instrument (QuantelMedical, Aviso, France). The ultrasonic frequency was 11 MHz. The ultrasonic propagation speeds of different refractive media of the eyeball were set as: 1557.5 m/s for the anterior chamber, 1723.3 m/s for the lens, and 1540 m/s for the vitreous body.

[2] = tested on: form deprivation myopia (FDM) guinea pig model; test: FDM guinea pig model, systemic (gavage) administration; format: in vivo; conditions: for axial length difference between the eyes / vitreous chamber depth difference between the eyes / refraction difference between the eyes / body weight: FDM; for refraction difference between the eyes: end of treatment (2 weeks); for body weight / mean weight decrease vs solvent group: vinpocetine 50 mg/kg/d gavage
Source text: The form deprivation myopia animal model and the method for evaluating the efficacy of vinpocetine for myopia treatment used in this experiment were the same as other relevant embodiments (local administration) in this application. Among them, the establishment of a guinea pig model of form deprivation myopia (FDM) and the gavage administration were manipulated and performed referring to the published literature in the inventor's laboratory. […] On the first day of the experiment, form deprivation (FD) myopia modeling began at 8 a.m. on the guinea pigs. The form deprivation myopia model adopted the mask method. The hood was made by the inventors using a 10-inch milky white non-toxic latex balloon. The right eye of the individual guinea pig for modeling was covered by the hood (experimental eye), and the left eye was not covered by the hood (contralateral eye). FD induction was continued during the entire vinpocetine efficacy experiment cycle by gavage administration, and the hood was only briefly removed during eye testing (such as refraction testing). […] The administration route was gavage administration. […] Administration was performed once a day for 2 weeks. […] 2017). Without adding other pharmaceutical excipients or other compounds, the inventors directly and completely dissolved the vinpocetine compound powder in 0.5% methylcellulose solvent (sterile water+methylcellulose) to prepare a vinpocetine preparation (gavage liquid) at 10 mg/mL and 20 mg/mL. The overall appearance of the preparation at room temperature was clear, transparent, and uniform, with no suspended matter visible to the naked eye. The preparation process of the preparation may use conventional physical and chemical solubilization means such as heating, stirring, and pH adjustment as appropriate, and no compounds would precipitate before administration of the preparation.

[3] = tested on: choroid of LIM guinea pigs; test: choroidal thickness and blood flow by OCTA, LIM group; format: in vivo, guinea pig; conditions: 1 week, vs solvent injection group
Procedure: The choroidal blood flow parameters and choroidal thickness were measured for the animals in the above FDM group after 1 week of continuous administration and at the end of the 2 week-administration experiment and for the animals in the LIM group at the end of the 7 day-administration experiment. Choroidal blood flow parameters and thickness were measured using a modified commercial OCTA (Spectralis HRA+OCT, OCTA, Heidelberg, Germany) which is more suitable for animal eyeballs. Before the measurement, the guinea pigs were fully anesthetized (a mixture of ketamine hydrochloride 60 mg/kg and xylazine hydrochloride 9 mg/kg, intraperitoneally injected), and then the guinea pig OCTA images were obtained, and the measurement results were quantified through a self-written program (MatLab R2017a, MathWorks). Real-time quantitative detection of choroidal blood flow and thickness in guinea pigs was achieved (Sen Zhang, Invest Ophthalmol Vis Sci. 2019 Jul. 1; 60(8):3074-3083).
Vinpocetine is known to improve blood circulation. The inventors used the method of example 1 to detect changes of indicator signals of choroidal thickness ChT and choroidal blood flow ChBP of FDM (1 week and 2 weeks of administration) and LIM (1 week of administration) at different time points during the administration cycle.

[4] = vinpocetine 1 μM, 1 week, vs vehicle
[5] = vinpocetine 50 mg/kg gavage, 2 weeks
[6] = vinpocetine 100 mg/kg gavage, 2 weeks

Structure (SMILES): CCOC(=O)C1=C[C@]2(CC)CCCN3CCc4c(n1c1ccccc41)[C@@H]32 [vinpocetine]
- refraction change towards negative and vitreous chamber depth elongation compared with the negative control group ([1]; low-concentration vinpocetine 0.01 μM, two time points, no statistical difference): showed an inhibitory trend
- refraction difference between the experimental eye and the contralateral eye ([1]; vinpocetine 1 μM 0.1 mL/day peribulbar injection, 1 week): −2.44±1.88 D
- axial length difference between the experimental eye and the contralateral eye ([1]; vinpocetine 1 μM, 1 week): 0.07±0.05 mm
- vitreous chamber depth difference between the experimental eye and the contralateral eye ([1]; vinpocetine 1 μM, 1 week): 0.06±0.05 mm
- inhibition rate for the axial length [1, 4]: 39.8%
- inhibition rate for the vitreous chamber depth [1, 4]: 45.0%
- refraction inhibition rate [1, 4]: 50.5%
- axial length difference between the experimental eye and the contralateral eye ([1]; vinpocetine 1 μM, 2 weeks): 0.08±0.05 mm
- inhibition rate for the axial length ([1]; vinpocetine 1 μM, 2 weeks): 48.2%
- inhibition rate for the vitreous chamber depth ([1]; vinpocetine 1 μM, 2 weeks): 43.4%
- refraction difference between the experimental eye and the contralateral eye ([1]; vinpocetine 1 μM, 2 weeks): −3.36±2.21 D
- refraction inhibition rate ([1]; vinpocetine 1 μM, 2 weeks): 50.1%
- vitreous chamber depth difference between the experimental eye and the contralateral eye ([1]; vinpocetine 1 μM, 2 weeks): 0.09±0.05 mm
- axial length difference between the eyes [2, 5]: 0.13±0.05 mm
- vitreous chamber depth difference between the eyes [2, 5]: 0.13±0.07 mm
- refraction difference between the eyes ([2]; vinpocetine 50 mg/kg gavage): −5.71±2.41 D
- body weight ([2]; 1 week): 188 ± 22.9 g
- body weight ([2]; 2 weeks): 210 ± 21.9 g
- axial length difference between the eyes [2, 6]: 0.11±0.05 mm
- vitreous chamber depth difference between the eyes [2, 6]: 0.10±0.06 mm
- refraction difference between the eyes ([2]; vinpocetine 100 mg/kg gavage): −5.223±2.20 D
- mean weight decrease vs solvent group ([2]; 1 week): 9.9%
- mean weight decrease vs solvent group ([2]; 2 weeks): 8.4%
- choroidal thickness ChT ([3]; not statistically significant): only slightly increased
- choroidal blood perfusion ChBP ([3]; p=0.766): only slightly increased
